The target of the test is JAK2 (JH1 domain-catalytic, Y1007F, Y1008F) kinase (Homo sapiens (Human), UniProt O60674, Y1007F/Y1008F). The test is described as follows: JAK2 JH1 Domain Binding Assay. The note with it: qPCR readout. In short, it runs like this: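 JH1 catalytic domain (Y1007F/Y1008F) expressed as NFkB DNA-binding-domain fusion in HEK293 cells, DNA-tagged. Competition with immobilized biotinylated ligand on streptavidin beads, 1 h at RT in PBS/Tween/BSA/DTT; bound kinase eluted with free ligand and quantified by qPCR.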
Chain of JAK2 (JH1 domain-catalytic, Y1007F, Y1008F) kinase (O60674 849-1124 Y1007F/Y1008F): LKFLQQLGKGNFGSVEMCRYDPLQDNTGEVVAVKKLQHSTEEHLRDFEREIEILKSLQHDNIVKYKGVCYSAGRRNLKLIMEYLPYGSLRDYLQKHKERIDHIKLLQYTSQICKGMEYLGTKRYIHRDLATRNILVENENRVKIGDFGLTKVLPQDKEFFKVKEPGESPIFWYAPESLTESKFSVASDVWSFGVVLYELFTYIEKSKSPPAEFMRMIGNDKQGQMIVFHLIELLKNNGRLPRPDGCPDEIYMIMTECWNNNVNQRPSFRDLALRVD
In general terms: In qPCR the cycle at which signal appears reflects the starting amount.
For the molecule `CO[C@H]1C[C@H](n2[nH]c3ncc(N4CCC(N(C)C(=O)Nc5cc(C(F)(F)F)cn(C)c5=O)CC4)cc3c2=O)C1` [Example I-119, 1-(1-(2-((1r,3r)-3-methoxycyclobutyl)-3-oxo-2,3-dihydro-1H-pyrazolo[3,4-b]pyridin-5-yl)piperidin-4-yl)-1-methyl-3-(1-methyl-2-oxo-5-(trifluoromethyl)-1,2-dihydropyridin-3-yl)urea], the Kd – broadly, a measure of binding affinity in units of concentration – was in the range of 1 to 5 µM.

`CN(C(=O)Nc1cc(C(F)(F)F)cn(C)c1=O)C1CCN(c2ccc(NC(=O)C3CC3)nc2)CC1` [Example I-24, N-(5-(4-(1-methyl-3-(1-methyl-2-oxo-5-(trifluoromethyl)-1,2-dihydropyridin-3-yl)ureido)piperidin-1-yl)pyridin-2-yl)cyclopropanecarboxamide] had a Kd below 0.01 µM.

With `CN(C(=O)Nc1cc(C(F)(F)F)cn(C)c1=O)[C@@H]1CCN(c2cnc3[nH]nc(OC4CCOCC4)c3c2)C[C@H]1F` [Example I-114-b, 1-((3R,4R)-3-fluoro-1-(3-((tetrahydro-2H-pyran-4-yl)oxy)-1H-pyrazolo[3,4-b]pyridin-5-yl)piperidin-4-yl)-1-methyl-3-(1-methyl-2-oxo-5-(trifluoromethyl)-1,2-dihydropyridin-3-yl)urea], the Kd is below 0.01 µM.

`COCCOc1n[nH]c2ncc(N3CC[C@@H]4[C@@H](C3)OCCN4C(=O)Nc3cc(C(F)(F)F)cn(C)c3=O)cc12` [Example I-162-b, (4aR,8aR)-6-(3-(2-methoxyethoxy)-1H-pyrazolo[3,4-b]pyridin-5-yl)-N-(1-methyl-2-oxo-5-(trifluoromethyl)-1,2-dihydropyridin-3-yl)octahydro-1H-pyrido[3,4-b][1,4]oxazine-1-carboxamide] showed a Kd of 0.01 to 0.05 µM.

Take `COCCOc1n[nH]c2ncc(N3CC[C@H](N(C)C(=O)Nc4cc(C(F)(F)F)cn(C)c4=O)[C@H](F)C3)cc12` [Example I-104-b, 1-((3R,4S)-3-fluoro-1-(3-(2-methoxyethoxy)-1H-pyrazolo[3,4-b]pyridin-5-yl)piperidin-4-yl)-1-methyl-3-(1-methyl-2-oxo-5-(trifluoromethyl)-1,2-dihydropyridin-3-yl)urea]: the Kd was below 0.01 µM.

The molecule `CN(C(=O)Nc1cc(C(F)(F)F)n([C@H]2CCOC2)n1)C1CCN(c2cnc3[nH]ncc3c2)CC1` [Example I-181, (S)-1-(1-(1H-pyrazolo[3,4-b]pyridin-5-yl)piperidin-4-yl)-1-methyl-3-(1-(tetrahydrofuran-3-yl)-5-(trifluoromethyl)-1H-pyrazol-3-yl)urea] gave a Kd below 0.01 µM.

Molecule `Cn1cc(C(F)(F)F)cc(NC(=O)N2CCCC23CCN(c2cnc4[nH]ccc4n2)CC3)c1=O` [Example I-47, N-(1-methyl-2-oxo-5-(trifluoromethyl)-1,2-dihydropyridin-3-yl)-8-(5H-pyrrolo[2,3-b]pyrazin-2-yl)-1,8-diazaspiro[4.5]decane-1-carboxamide] registered a Kd of 0.01 to 0.05 µM.

For `COCc1cc2nc(N3CCC(N(C)C(=O)Nc4cc(C(F)(F)F)cn(C)c4=O)CC3)cnc2[nH]1` [Example I-77, 1-(1-(6-(methoxymethyl)-5H-pyrrolo[2,3-b]pyrazin-2-yl)piperidin-4-yl)-1-methyl-3-(1-methyl-2-oxo-5-(trifluoromethyl)-1,2-dihydropyridin-3-yl)urea], the Kd is below 0.01 µM.

`CN(C(=O)Nc1cc(C(F)(F)F)cn(C)c1=O)[C@@H]1CC=C(c2cnc3[nH]ncc3n2)CC1` (single isomer, unassigned) [Example I-160-a, (S)- or (R)-1-(4-(1H-pyrazolo[3,4-b]pyrain-5-yl)cyclohex-3-en-1-yl)-1-methyl-3-(2-methyl-2-oxo-5-(trifluoromethyl)-1,2-dihydropyridin-3-yl)urea] returned a Kd below 0.01 µM.

The molecule `Cn1cc(C(F)(F)F)cc(NC(=O)N(C)[C@H]2CC[C@H](c3cnc4[nH]ccc4n3)CC2)c1=O` [Example I-120-a, trans-1-(4-(5H-pyrrolo[2,3-b]pyrazin-2-yl)cyclohexyl)-1-methyl-3-(1-methyl-2-oxo-5-(trifluoromethyl)-1,2-dihydropyridin-3-yl)urea] gave a Kd of 0.05 to 1 µM.

Molecule `COc1n[nH]c2ncc(N3CCC(N(C)C(=O)Nc4cc(C(F)(F)F)ccn4)CC3)cc12` [Example I-138, 1-(1-(3-methoxy-1H-pyrazolo[3,4-b]pyridin-5-yl)piperidin-4-yl)-1-methyl-3-(4-(trifluoromethyl)pyridin-2-yl)urea] yielded a Kd below 0.01 µM.

As for `CN(C)c1n[nH]c2ncc(N3CCC(N(C)C(=O)Nc4cc(C(F)(F)F)cn(C)c4=O)CC3)cc12` [Example I-46, 1-(1-(3-(dimethylamino)-1H-pyrazolo[3,4-b]pyridin-5-yl)piperidin-4-yl)-1-methyl-3-(1-methyl-2-oxo-5-(trifluoromethyl)-1,2-dihydropyridin-3-yl)urea], the Kd was below 0.01 µM.

`CNc1ccnc2c(N3CCC(N(C)C(=O)Nc4cc(C(F)(F)F)cn(C)c4=O)CC3)cnn12` [Example I-42, 1-methyl-3-(1-methyl-2-oxo-5-(trifluoromethyl)-1,2-dihydropyridin-3-yl)-1-(1-(7-(methylamino)pyrazolo[1,5-a]pyrimidin-3-yl)piperidin-4-yl)urea] came in with a Kd below 0.01 µM.

`Cn1cc(C(F)(F)F)cc(NC(=O)N2CCCC23CCN(c2cnc4[nH]cc(F)c4n2)CC3)c1=O` [Example I-52, 8-(7-fluoro-5H-pyrrolo[2,3-b]pyrazin-2-yl)-N-(1-methyl-2-oxo-5-(trifluoromethyl)-1,2-dihydropyridin-3-yl)-1,8-diazaspiro[4.5]decane-1-carboxamide] displayed a Kd of 0.05 to 1 µM.

As for `COCCOc1n[nH]c2ncc(N3CC[C@H](N(C)C(=O)Nc4cc(C(F)(F)F)cn(C)c4=O)C[C@@H]3C)cc12` [Example I-132-a, 1-((2S,4S)-1-(3-(2-methoxyethoxy)-1H-pyrazolo[3,4-b]pyridin-5-yl)-2-methylpiperidin-4-yl)-1-methyl-3-(1-methyl-2-oxo-5-(trifluoromethyl)-1,2-dihydropyridin-3-yl)urea], the Kd lay in the range of 0.01 to 0.05 µM.

Take `CN(C(=O)Nc1cc(C(F)(F)F)cn(C)c1=O)C1CCN(c2cnccn2)CC1` [Example I-10, 1-methyl-3-(1-methyl-2-oxo-5-(trifluoromethyl)-1,2-dihydropyridin-3-yl)-1-(1-(pyrazin-2-yl)piperidin-4-yl)urea]: the equilibrium dissociation constant (Kd) lay in the range of 0.01 to 0.05 µM.

As to `Cn1cc(C(F)(F)F)cc(NC(=O)N2CCC23CCN(c2cnc4[nH]ccc4n2)CC3)c1=O` [Example I-67, N-(1-methyl-2-oxo-5-(trifluoromethyl)-1,2-dihydropyridin-3-yl)-7-(5H-pyrrolo[2,3-b]pyrazin-2-yl)-1,7-diazaspiro[3.5]nonane-1-carboxamide], the Kd was 0.05 to 1 µM.

On to `CN(C(=O)Nc1cc(C(F)(F)F)cn(C)c1=O)C1CCN(c2cnc(NC(=O)C3CC3)cn2)CC1` [Example I-18, N-(5-(4-(1-methyl-3-(1-methyl-2-oxo-5-(trifluoromethyl)-1,2-dihydropyridin-3-yl)ureido)piperidin-1-yl)pyrazin-2-yl)cyclopropanecarboxamide], for which the Kd was below 0.01 µM.

As for `CN(C(=O)Nc1cc(C(F)(F)F)cn(C)c1=O)C1CCN(c2cnc3[nH]ccc3n2)CC1` [Example I-15, 1-(1-(5H-pyrrolo[2,3-b]pyrazin-2-yl)piperidin-4-yl)-1-methyl-3-(1-methyl-2-oxo-5-(trifluoromethyl)-1,2-dihydropyridin-3-yl)urea], the Kd was below 0.01 µM.
